Data as given in patent US12649750B2, “Macrocyclic compounds, compositions, and methods of using thereof” (Sionna Therapeutics Inc., priority 2022, dated 2026).
Like-named read-outs stand apart in the source and are kept apart here.

What was measured:
NBD1 = target: T1, NBD1 (Homo sapiens, UniProt P13569); assay: Aggregation analysis using differential static light scattering (DSLS), thermal stability of NBD1 (ΔTagg); assay type: binding; settings: ΔTagg versus DMSO control, NBD1 0.2 mg/ml
T1 construct: Purified recombinant NBD1 was produced using previously described methods; made in house
T1 sequence (P13569 423-646 limits assumed): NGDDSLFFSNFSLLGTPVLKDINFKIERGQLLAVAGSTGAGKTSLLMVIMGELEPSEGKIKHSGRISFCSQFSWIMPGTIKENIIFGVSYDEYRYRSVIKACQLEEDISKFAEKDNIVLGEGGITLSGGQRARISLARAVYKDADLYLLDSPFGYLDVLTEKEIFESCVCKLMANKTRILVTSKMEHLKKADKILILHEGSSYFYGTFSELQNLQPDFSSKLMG
Procedure, shortened: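 Thermal aggregation of purified NBD1 was followed by static light scattering during a 1° C./min ramp to 70° C. Protein was at 0.2 mg/ml with 2 mM ATP at pH7.6. Each compound's Tagg was referenced to DMSO controls.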

CFTR = target: T2, CFTR (Homo sapiens, UniProt P13569, DEL508-508); assay: TECC24 AUC fold over DMSO @10 μM, CFTR-mediated transepithelial chloride transport in CF-HBE cells; assay type: cell-based; settings: test agent AUC divided by DMSO vehicle AUC, primary CF-HBE cells, ΔF508 homozygous donor, 48 hours incubation
T2 construct: Primary human bronchial epithelial cells from a ΔF508 homozygous CF donor; host or cells: primary human bronchial epithelial cells (CF-HBE), ΔF508 homozygous donor
T2 sequence (P13569 with tags, fused parts or gaps DEL508-508): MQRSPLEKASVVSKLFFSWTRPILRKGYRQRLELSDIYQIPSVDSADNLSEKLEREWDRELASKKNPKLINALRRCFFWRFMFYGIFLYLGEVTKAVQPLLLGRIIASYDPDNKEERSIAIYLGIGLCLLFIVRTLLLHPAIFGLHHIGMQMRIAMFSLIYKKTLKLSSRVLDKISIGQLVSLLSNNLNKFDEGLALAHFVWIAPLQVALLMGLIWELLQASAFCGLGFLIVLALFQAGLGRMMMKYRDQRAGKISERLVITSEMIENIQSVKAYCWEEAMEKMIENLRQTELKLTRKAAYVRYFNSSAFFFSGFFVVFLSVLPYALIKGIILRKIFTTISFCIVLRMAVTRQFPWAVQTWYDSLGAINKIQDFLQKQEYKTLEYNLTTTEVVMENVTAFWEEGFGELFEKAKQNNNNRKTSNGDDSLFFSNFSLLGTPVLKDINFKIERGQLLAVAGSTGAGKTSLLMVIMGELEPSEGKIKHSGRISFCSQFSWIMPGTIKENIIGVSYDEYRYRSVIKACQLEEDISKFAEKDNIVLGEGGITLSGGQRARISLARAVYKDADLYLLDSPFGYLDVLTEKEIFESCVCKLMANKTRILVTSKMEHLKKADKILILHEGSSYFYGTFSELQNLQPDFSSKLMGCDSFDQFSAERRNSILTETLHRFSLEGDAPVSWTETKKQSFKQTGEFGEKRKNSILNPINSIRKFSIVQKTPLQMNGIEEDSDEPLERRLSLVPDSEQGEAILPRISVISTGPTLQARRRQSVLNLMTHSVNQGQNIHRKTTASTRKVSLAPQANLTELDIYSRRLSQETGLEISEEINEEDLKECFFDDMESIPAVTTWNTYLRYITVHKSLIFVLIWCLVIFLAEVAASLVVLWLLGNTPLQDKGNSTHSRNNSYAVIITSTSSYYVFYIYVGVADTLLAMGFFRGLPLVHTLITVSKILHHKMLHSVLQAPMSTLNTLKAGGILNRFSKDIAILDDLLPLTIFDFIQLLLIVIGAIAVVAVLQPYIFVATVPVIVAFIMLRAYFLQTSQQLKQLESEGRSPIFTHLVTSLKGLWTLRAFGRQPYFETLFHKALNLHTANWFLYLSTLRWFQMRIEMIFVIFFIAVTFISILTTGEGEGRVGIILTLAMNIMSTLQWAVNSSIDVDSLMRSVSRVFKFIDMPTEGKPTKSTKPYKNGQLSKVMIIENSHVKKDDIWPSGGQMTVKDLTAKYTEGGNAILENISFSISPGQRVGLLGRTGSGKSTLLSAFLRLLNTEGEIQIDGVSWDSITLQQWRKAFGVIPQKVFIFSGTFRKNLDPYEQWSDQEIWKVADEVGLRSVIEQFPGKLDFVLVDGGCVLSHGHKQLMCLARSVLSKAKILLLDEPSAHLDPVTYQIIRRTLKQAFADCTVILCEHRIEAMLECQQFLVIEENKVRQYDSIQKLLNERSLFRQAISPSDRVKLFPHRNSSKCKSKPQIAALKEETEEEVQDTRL
Procedure, shortened: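 ΔF508-homozygous primary bronchial epithelial cells incubated 48 h at 36.5° C with compound (10 μM) in IL-13-containing medium, then TECC24 current-clamp recording in pH 7.4 Hepes saline with benzamil 10 μM, forskolin 10 μM, then CFTR inhibitor-172 20 μM. Equivalent Cl− current AUC between forskolin and inhibitor, expressed as fold over DMSO.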

Structure (SMILES)	DSLS 3D (100 μM ΔT) (NBD1)	TECC (AUC, 10 μM) (CFTR)	further results
CCOC(=O)CCc1cccc(C2CCCC(C)(C)CSCCc3c(c(F)cc4[nH]ccc34)Oc3ccc(F)c(c3)-c3nn2cc3C#N)c1 (stereo not drawn)	–	–	ring closure, isolated yield (from CCOC(=O)CCc1cccc(C(O)CCCC(C)(C)CSCCc2c(Oc3ccc(F)c(-c4n[nH]cc4C#N)c3)c(F)cc3[nH]ccc23)c1, other bond, 18-membered ring, cyanomethylenetributylphosphorane, 1,4-dioxane, 40.9 mM, 150.0 °C, 0.67 h): 46%
COC(=O)/C1=C\c2c(c(F)cc3[nH]ccc23)Oc2cccc(c2)-c2ccn(n2)C(c2cccc(Br)c2)CCCC(C)(C)CS1(=O)=O (stereo not drawn)	–	–	ring closure, isolated yield (from COC(=O)CS(=O)(=O)CC(C)(C)CCCC(c1cccc(Br)c1)n1ccc(-c2cccc(Oc3c(F)cc4[nH]ccc4c3C=O)c2)n1, other bond, 18-membered ring, piperidine/rest truncated, toluene, 3.5 mM, 100.0 °C): 43%
COC(=O)[C@@H](C)Cc1cccc([C@@]2(C)CCCC(C)(C)CS(=O)(=O)/C=C/c3c(c(F)c(F)c4[nH]ccc34)Sc3ccc(F)c(c3)-c3nc2nn3C)c1	–	–	ring closure, isolated yield (from C=CS(=O)(=O)CC(C)(C)CCC[C@](C)(c1cccc(C[C@H](C)C(=O)OC)c1)c1nc(-c2cc(Sc3c(F)c(F)c4[nH]ccc4c3Br)ccc2F)n(C)n1, cc_pd bond, 18-membered ring, Pd(PtBu3)2/Et3N, toluene, 9.7 mM, 120.0 °C, 4.0 h): 80%
COC(=O)[C@@H](C)Cc1cccc([C@@]2(C)CCCC(C)(C)CS(=O)(=O)/C=C/c3c(c(F)cc4[nH]ccc34)Sc3ccc(F)c(c3)-c3nc2nn3C)c1	–	–	ring closure, isolated yield (from C=CS(=O)(=O)CC(C)(C)CCC[C@](C)(c1cccc(C[C@H](C)C(=O)OC)c1)c1nc(-c2cc(Sc3c(F)cc4[nH]ccc4c3Br)ccc2F)n(C)n1, cc_pd bond, 18-membered ring, Pd(PtBu3)2/Et3N, toluene, 25.9 mM, 120.0 °C, 2.5 h): 69%
COC(=O)[C@H](C)Cc1cccc(C2(C)CCCC(C)(C)CS(=O)(=O)/C=C/c3c(c(F)cc4c3ccn4S(=O)(=O)c3ccc(C)cc3)Oc3ccc(F)c(c3)-c3ccn2n3)c1 (stereo partly drawn)	–	–	ring closure, isolated yield (cc_pd bond, 18-membered ring, Pd(PtBu3)2/Et3N, toluene, 0.65 mM, 100.0 °C): 11%
COC(=O)[C@H](C)Cc1cccc(C2(C)CCCC(C)(C)CS(=O)(=O)C=Cc3c(c(F)cc4[nH]ccc34)Oc3ccc(F)c(c3)-c3nc2nn3C)c1 (stereo partly drawn)	–	–	ring closure, isolated yield (from C=CS(=O)(=O)CC(C)(C)CCCC(C)(c1cccc(C[C@@H](C)C(=O)OC)c1)c1nc(-c2cc(Oc3c(F)cc4[nH]ccc4c3Br)ccc2F)n(C)n1, cc_pd bond, 18-membered ring, Pd(PtBu3)2/second reagent truncated, toluene, 8.15 mM, 2.0 h): 48%
COC(=O)[C@H](C)Cc1cccc([C@@]2(C)CCCC(C)(C)CS(=O)(=O)/C=C/c3c(c(F)c(F)c4[nH]ccc34)Oc3ccc(F)c(c3)-c3nc2nn3C)c1	–	–	ring closure, isolated yield (from C=CS(=O)(=O)CC(C)(C)CCC[C@](C)(c1cccc(C[C@@H](C)C(=O)OC)c1)c1nc(-c2cc(Oc3c(F)c(F)c4[nH]ccc4c3Br)ccc2F)n(C)n1, cc_pd bond, 18-membered ring, Pd(PtBu3)2/Et3N, toluene, 10.8 mM, 120.0 °C, 3.5 h): 68%
COC(=O)[C@H](C)Cc1cccc([C@@]2(C)CCCC(C)(C)CS(=O)(=O)/C=C/c3c(c(F)c(F)c4[nH]ccc34)Sc3ccnc(c3)-c3nc2nn3C)c1	–	–	ring closure, isolated yield (cc_pd bond, 18-membered ring, Pd(PtBu3)2/Et3N, toluene, 21.3 mM, 120.0 °C): 56%
COC(=O)[C@H](C)Cc1cccc([C@@]2(C)CCCC(C)(C)CS(=O)(=O)C=Cc3c(c(F)cc4[nH]ccc34)Oc3ccnc(c3)-c3nc2nn3C)c1	–	–	ring closure, isolated yield (from C=CS(=O)(=O)CC(C)(C)CCC[C@](C)(c1cccc(C[C@@H](C)C(=O)OC)c1)c1nc(-c2cc(Oc3c(F)cc4[nH]ccc4c3Br)ccn2)n(C)n1, cc_pd bond, 18-membered ring, Pd(PtBu3)2/Et3N, toluene, 2.74 mM, 120.0 °C, 4.0 h): 64%
Cn1nc2nc1-c1cc(ccc1F)Oc1c(F)cc3c(ccn3COCc3ccccc3)c1/C=C/S(=O)(=O)CCCCOC2c1cccc(CCCO)c1 (stereo not drawn)	–	–	ring closure, isolated yield (from Cn1nc(C(OCCCCS(C)(=O)=O)c2cccc(CCCO)c2)nc1-c1cc(Oc2c(F)cc3c(ccn3COCc3ccccc3)c2C=O)ccc1F, other bond, 18-membered ring, NaH, DMF, 19.4 mM): 26%
Cn1nc2nc1-c1cc(ccc1F)Oc1c(F)cc3c(ccn3S(=O)(=O)c3ccccc3)c1Cn1cc(cn1)C(C)(C)CSCCC2(C)c1cccc(Br)c1 (stereo not drawn)	–	–	ring closure, isolated yield (from Cn1nc(C(C)(CCSCC(C)(C)c2cn[nH]c2)c2cccc(Br)c2)nc1-c1cc(Oc2c(F)cc3c(ccn3S(=O)(=O)c3ccccc3)c2CO)ccc1F, other bond, 19-membered ring, cyanomethylenetributylphosphorane, toluene, 14.0 mM, 110.0 °C, 4.0 h): 37%
Cn1nc2nc1-c1cc(ccc1F)Oc1c(F)cc3[nH]ccc3c1CCS(=O)(=O)CC(C)(C)CCC[C@]2(C)c1cccc(CC2(C(=O)O)CC2)c1 [Compound 288, 1-[[3-[(6R)-22,28-difluoro-3,6,10,10-tetramethyl-12,12-dioxo-24-oxa-12λ6-thia-3,4,19,30-tetrazapentacyclo[23.3.1.12,5.015,23.016,20]triaconta-1(29),2(30),4,15,17,20,22,25,27-nonaen-6-yl]phenyl]methyl]cyclopropanecarboxylic Acid]	C (a value greater than 10 °C and less than or equal to 25 °C is marked “C”)	C (a value between 20 and 80 is marked “C”)	–
Cn1nc2nc1-c1cc(ccc1F)Oc1c(F)cc3[nH]ccc3c1CCS(=O)(=O)CC(C)(C)CCC[C@]2(C)c1cccc(CC(C)(C)C(=O)O)c1 [Compound 289, 3-[3-[(6R)-22,28-difluoro-3,6,10,10-tetramethyl-12,12-dioxo-24-oxa-12λ6-thia-3,4,19,30-tetrazapentacyclo[23.3.1.12,5.015,23.016,20]triaconta-1(29),2(30),4,15,17,20,22,25,27-nonaen-6-yl]phenyl]-2,2-dimethyl-propanoic Acid]	C (a value greater than 10 °C and less than or equal to 25 °C is marked “C”)	C (a value between 20 and 80 is marked “C”)	–
Cn1nc2nc1-c1cc(ccn1)Oc1c(F)cc3[nH]ccc3c1CCS(=O)(=O)CC(C)(C)CCC[C@]2(C)c1cccc(CC2(C(=O)O)CC2)c1 [Compound 290, 1-[[3-[(6R)-22-fluoro-3,6,10,10-tetramethyl-12,12-dioxo-24-oxa-12λ6-thia-3,4,19,28,30-pentazapentacyclo[23.3.1.12,5.015,23.016,20]triaconta-1(29),2(30),4,15,17,20,22,25,27-nonaen-6-yl]phenyl]methyl]cyclopropanecarboxylic Acid]	C (a value greater than 10 °C and less than or equal to 25 °C is marked “C”)	C (a value between 20 and 80 is marked “C”)	–
Cn1nc2nc1-c1cc(ccn1)Oc1c(F)cc3[nH]ccc3c1CCS(=O)(=O)CC(C)(C)CCC[C@]2(C)c1cccc(CC(C)(C)C(=O)O)c1 [Compound 291, 3-[3-[(6R)-22-fluoro-3,6,10,10-tetramethyl-12,12-dioxo-24-oxa-12λ6-thia-3,4,19,28,30-pentazapentacyclo[23.3.1.12,5.015,23.016,20]triaconta-1(29),2(30),4,15,17,20,22,25,27-nonaen-6-yl]phenyl]-2,2-dimethyl-propanoic Acid]	C (a value greater than 10 °C and less than or equal to 25 °C is marked “C”)	C (a value between 20 and 80 is marked “C”)	–
C[C@@H](Cc1cccc([C@@]2(C)CCCC(C)(C)CS(=O)(=O)CCc3c(c(F)cc4[nH]ccc34)Sc3cccc(c3)-c3nc2co3)c1)C(=O)O [Compound 293, (2S)-3-[3-[(6R)-22-fluoro-6,10,10-trimethyl-12,12-dioxo-3-oxa-12λ6,24-dithia-19,30-diazapentacyclo[23.3.1.12,5.015,23.016,20]triaconta-1(29),2(30),4,15,17,20,22,25,27-nonaen-6-yl]phenyl]-2-methyl-propanoic Acid]	C (a value greater than 10 °C and less than or equal to 25 °C is marked “C”)	B (a value between 12-20 is marked “B”)	–
C[C@@H](Cc1cccc([C@@]2(C)CCCC(C)(C)CS(=O)(=O)CCc3c(c(F)cc4[nH]ccc34)[S+]([O-])c3cccc(c3)-c3nc2co3)c1)C(=O)O (stereo partly drawn) [Compound 294, (2S)-3-[3-[(6R)-22-fluoro-6,10,10-trimethyl-12,12,24-trioxo-3-oxa-12λ6,24λ4-dithia-19,30-diazapentacyclo[23.3.1.12,5.015,23.016,20]triaconta-1(29),2(30),4,15,17,20,22,25,27-nonaen-6-yl]phenyl]-2-methyl-propanoic Acid]	C (a value greater than 10 °C and less than or equal to 25 °C is marked “C”)	A (a TECC value less than 12 is marked “A”)	–
Cn1nc2nc1-c1cc(ccc1F)Oc1c(F)cc3[nH]ccc3c1CCS(=O)(=O)CCCCOC2c1cccc(CCCO)c1 (stereo not drawn) [Compound 296, 3-[3-(22,28-Difluoro-3-methyl-12,12-dioxo-7,24-dioxa-12lambda6-thia-3,4,19,30-tetrazapentacyclo[23.3.1.^12,5.0^15,23.0^16,20]triaconta-1(29),2(30),4,15(23),16(20),17,21,25,27-nonaen-6-yl)phenyl]propan-1-ol]	A (an ΔTagg value less than or equal to 5 °C is marked “A”)	A (a TECC value less than 12 is marked “A”)	–
Cn1nc2nc1-c1cc(ccc1F)Oc1c(F)cc3[nH]ccc3c1CCS(=O)(=O)CCCCOC2c1cccc(CCC(=O)O)c1 (stereo not drawn) [Compound 297, 3-[3-(22,28-Difluoro-3-methyl-12,12-dioxo-7,24-dioxa-12λ6-thia-3,4,19,30-tetrazapentacyclo[23.3.1.12,5.015,23.016,20]triaconta-1(29),2(30),4,15(23),16(20),17,21,25,27-nonaen-6-yl)phenyl]propanoic Acid]	B (a value above 5 °C and less than or equal to 10 °C is marked “B”)	A (a TECC value less than 12 is marked “A”)	–
